According to patent US12649750B2, “Macrocyclic compounds, compositions, and methods of using thereof” (Sionna Therapeutics Inc., priority 2022, dated 2026):

Experiments:
[1] = molecular target: T1, NBD1 (Homo sapiens, UniProt P13569); assay: Aggregation analysis using differential static light scattering (DSLS), thermal stability of NBD1 (ΔTagg); format: binding; settings: ΔTagg versus DMSO control, NBD1 0.2 mg/ml
T1 construct: Purified recombinant NBD1 was produced using previously described methods; made in house
Method in brief: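 Differential static light scattering read from 25° C. to 70° C. every 0.5° C., ramp 1° C./min, on recombinant NBD1 (0.2 mg/ml; Tris/NaCl/MgCl2 buffer with 2 mM ATP, 2 mM DTT, pH 7.6, 1% glycerol) plus compound. Reported ΔTagg subtracts averaged DMSO Tagg from inflection-point Tagg; categories A ≤5, B >5-10, C >10-25° C.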

[2] = molecular target: T2, CFTR (Homo sapiens, UniProt P13569, DEL508-508); assay: TECC24 AUC fold over DMSO @10 μM, CFTR-mediated transepithelial chloride transport in CF-HBE cells; format: cell-based; settings: test agent AUC divided by DMSO vehicle AUC, primary CF-HBE cells, ΔF508 homozygous donor, 48 hours incubation
T2 construct: Primary human bronchial epithelial cells from a ΔF508 homozygous CF donor; host or cells: primary human bronchial epithelial cells (CF-HBE), ΔF508 homozygous donor
Method in brief: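 Value is ratio of test-agent to DMSO AUC of equivalent transepithelial Cl− current, integrated from forskolin (10 μM) stimulation to CFTR inhibitor-172 (20 μM) block, with benzamil 10 μM present. CF-HBE (ΔF508/ΔF508) cultures had 48 h compound exposure at 10 μM, 36.5° C before recording.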

T1 sequence (P13569 423-646 limits assumed): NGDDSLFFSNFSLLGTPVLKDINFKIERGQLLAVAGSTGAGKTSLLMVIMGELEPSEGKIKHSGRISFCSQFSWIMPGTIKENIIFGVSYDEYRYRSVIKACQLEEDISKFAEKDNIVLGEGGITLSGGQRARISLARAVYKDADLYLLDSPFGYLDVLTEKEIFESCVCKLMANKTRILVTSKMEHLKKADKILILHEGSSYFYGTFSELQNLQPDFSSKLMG
T2 sequence (P13569 with tags, fused parts or gaps DEL508-508): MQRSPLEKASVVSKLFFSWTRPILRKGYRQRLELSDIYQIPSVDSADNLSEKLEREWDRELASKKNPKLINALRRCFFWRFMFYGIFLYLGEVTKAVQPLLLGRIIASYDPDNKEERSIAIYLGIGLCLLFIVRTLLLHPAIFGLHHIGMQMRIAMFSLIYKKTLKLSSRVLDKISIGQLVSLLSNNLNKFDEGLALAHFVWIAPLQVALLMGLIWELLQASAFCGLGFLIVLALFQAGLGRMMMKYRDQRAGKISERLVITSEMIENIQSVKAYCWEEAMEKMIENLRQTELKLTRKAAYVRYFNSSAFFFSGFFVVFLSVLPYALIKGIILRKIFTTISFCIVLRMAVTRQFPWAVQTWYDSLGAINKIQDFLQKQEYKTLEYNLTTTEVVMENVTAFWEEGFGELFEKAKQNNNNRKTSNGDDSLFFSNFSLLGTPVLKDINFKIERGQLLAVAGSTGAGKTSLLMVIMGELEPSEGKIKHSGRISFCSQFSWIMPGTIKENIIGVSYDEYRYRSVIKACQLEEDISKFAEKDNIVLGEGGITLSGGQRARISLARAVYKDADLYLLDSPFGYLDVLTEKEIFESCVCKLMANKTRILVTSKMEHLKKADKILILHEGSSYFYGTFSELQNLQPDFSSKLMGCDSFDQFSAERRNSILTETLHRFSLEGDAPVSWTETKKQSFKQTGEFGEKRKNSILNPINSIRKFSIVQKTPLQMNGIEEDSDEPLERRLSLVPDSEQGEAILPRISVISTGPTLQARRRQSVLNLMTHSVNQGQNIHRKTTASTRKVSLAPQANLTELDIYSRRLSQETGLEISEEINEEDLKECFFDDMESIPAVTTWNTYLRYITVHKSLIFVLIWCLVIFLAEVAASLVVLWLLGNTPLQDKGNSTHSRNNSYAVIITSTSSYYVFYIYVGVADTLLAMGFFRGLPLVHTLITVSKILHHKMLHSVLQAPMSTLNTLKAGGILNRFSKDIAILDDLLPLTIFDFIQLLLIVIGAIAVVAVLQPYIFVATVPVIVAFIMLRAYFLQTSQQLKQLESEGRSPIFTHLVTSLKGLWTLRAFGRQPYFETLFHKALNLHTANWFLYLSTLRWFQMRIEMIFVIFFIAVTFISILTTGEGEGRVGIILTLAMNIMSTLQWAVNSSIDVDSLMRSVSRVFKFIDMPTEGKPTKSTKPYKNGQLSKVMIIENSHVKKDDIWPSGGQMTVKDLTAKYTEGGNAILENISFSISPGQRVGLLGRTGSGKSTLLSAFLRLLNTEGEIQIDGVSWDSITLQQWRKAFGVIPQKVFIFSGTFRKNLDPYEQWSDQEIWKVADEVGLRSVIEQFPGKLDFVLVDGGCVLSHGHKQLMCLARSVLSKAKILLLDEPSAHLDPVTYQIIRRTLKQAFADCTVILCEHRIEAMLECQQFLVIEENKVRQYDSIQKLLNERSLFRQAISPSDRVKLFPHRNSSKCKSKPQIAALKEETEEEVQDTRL

Row | SMILES | DSLS 3D (100 μM ΔT) [1] | TECC (AUC, 10 μM) [2]
1 | C[C@H](Cc1cccc(C2(C)CCCC(C)(C)CS(=O)(=O)CCc3c(c(F)cc4[nH]ccc34)C(=O)c3ccc(F)c(c3)-c3nc2nn3C)c1)C(=O)O (single isomer, unassigned) [Compound 126B] | B (a value above 5 °C and less than or equal to 10 °C is marked “B”) | B (a value between 12-20 is marked “B”)
2 | COc1ccc2cc1-c1nc(nn1C)C(C)(c1cccc(C[C@@H](C)C(=O)O)c1)CCCC(C)(C)CS(=O)(=O)CCc1c(c(F)cc3[nH]ccc13)C2=O (single isomer, unassigned) [Compound 127A] | B (a value above 5 °C and less than or equal to 10 °C is marked “B”) | A (a TECC value less than 12 is marked “A”)
3 | COc1ccc2cc1-c1nc(nn1C)C(C)(c1cccc(C[C@@H](C)C(=O)O)c1)CCCC(C)(C)CS(=O)(=O)CCc1c(c(F)cc3[nH]ccc13)C2=O (single isomer, unassigned) [Compound 127B] | A (an ΔTagg value less than or equal to 5 °C is marked “A”) | A (a TECC value less than 12 is marked “A”)
4 | C[C@@H](Cc1cccc(C2(C)CCCC(C)(C)CS(=O)(=O)CCc3c(c(F)cc4[nH]ccc34)Oc3ccc(F)c(c3)-c3nc2c[nH]3)c1)C(=O)O (single isomer, unassigned) [Compound 129A] | A (an ΔTagg value less than or equal to 5 °C is marked “A”) | A (a TECC value less than 12 is marked “A”)
5 | C[C@@H](Cc1cccc(C2(C)CCCC(C)(C)CS(=O)(=O)CCc3c(c(F)cc4[nH]ccc34)Oc3ccc(F)c(c3)-c3nc2c[nH]3)c1)C(=O)O (single isomer, unassigned) [Compound 129B] | C (a value greater than 10 °C and less than or equal to 25 °C is marked “C”) | A (a TECC value less than 12 is marked “A”)
6 | [2H]C([2H])([2H])C1(c2cccc(C[C@H](C)C(=O)O)c2)CCCC2(COC2)CS(=O)(=O)CCc2c(c(F)cc3[nH]ccc23)Oc2ccc(F)c(c2)-c2nc1nn2C (single isomer, unassigned) [Compound 130A] | C (a value greater than 10 °C and less than or equal to 25 °C is marked “C”) | C (a value between 20 and 80 is marked “C”)
7 | [2H]C([2H])([2H])C1(c2cccc(C[C@H](C)C(=O)O)c2)CCCC2(COC2)CS(=O)(=O)CCc2c(c(F)cc3[nH]ccc23)Oc2ccc(F)c(c2)-c2nc1nn2C (single isomer, unassigned) [Compound 130B] | C (a value greater than 10 °C and less than or equal to 25 °C is marked “C”) | C (a value between 20 and 80 is marked “C”)
8 | CC(Cc1cccc(C2(C)CCCC(C)(C)CS(=O)(=O)CCc3c(c(F)cc4[nH]ccc34)Cn3cc(ccc3=O)-c3nc2nn3C)c1)C(=O)O (single isomer, unassigned) [Compound 132A, 3-[3-(22-fluoro-3,6,10,10-tetramethyl-12,12,26-trioxo-12λ6-thia-3,4,19,25,30-pentazapentacyclo-[23.3.1.12,5.015,23.016,20]triaconta-1(29),2(30),4,15,17,20,22,27-octaen-6-yl)phenyl]-2-methyl-propanoic Acid] | A (an ΔTagg value less than or equal to 5 °C is marked “A”) | A (a TECC value less than 12 is marked “A”)
9 | CC(Cc1cccc(C2(C)CCCC(C)(C)CS(=O)(=O)CCc3c(c(F)cc4[nH]ccc34)Cn3cc(ccc3=O)-c3nc2nn3C)c1)C(=O)O (single isomer, unassigned) [Compound 132B, 3-[3-(22-fluoro-3,6,10,10-tetramethyl-12,12,26-trioxo-12λ6-thia-3,4,19,25,30-pentazapentacyclo-[23.3.1.12,5.015,23.016,20]triaconta-1(29),2(30),4,15,17,20,22,27-octaen-6-yl)phenyl]-2-methyl-propanoic Acid] | C (a value greater than 10 °C and less than or equal to 25 °C is marked “C”) | A (a TECC value less than 12 is marked “A”)
10 | CC(Cc1cccc(C2(CNCC(F)(F)F)CCCC(C)(C)CS(=O)(=O)CCc3c(c(F)cc4[nH]ccc34)Oc3ccc(F)c(c3)-c3nc2nn3C)c1)C(=O)O (single isomer, unassigned) [Compound 133A, 3-[3-[22,28-difluoro-3,10,10-trimethyl-12,12-dioxo-6-[(2,2,2-trifluoroethylamino)methyl]-24-oxa-12λ6-thia-3,4,19,30-tetrazapentacyclo[23.3.1.12,5.015,23.016,20]triaconta-1(29),2(30),4,15,17,20,22,25,27-nonaen-6-yl]phenyl]-2-methyl-propanoic Acid] | C (a value greater than 10 °C and less than or equal to 25 °C is marked “C”) | C (a value between 20 and 80 is marked “C”)
11 | CC(Cc1cccc(C2(CNCC(F)(F)F)CCCC(C)(C)CS(=O)(=O)CCc3c(c(F)cc4[nH]ccc34)Oc3ccc(F)c(c3)-c3nc2nn3C)c1)C(=O)O (single isomer, unassigned) [Compound 133B, 3-[3-[22,28-difluoro-3,10,10-trimethyl-12,12-dioxo-6-[(2,2,2-trifluoroethylamino)methyl]-24-oxa-12λ6-thia-3,4,19,30-tetrazapentacyclo[23.3.1.12,5.015,23.016,20]triaconta-1(29),2(30),4,15,17,20,22,25,27-nonaen-6-yl]phenyl]-2-methyl-propanoic Acid] | B (a value above 5 °C and less than or equal to 10 °C is marked “B”) | A (a TECC value less than 12 is marked “A”)
12 | Cn1nc2nc1-c1cc(ccc1F)Oc1c(F)cc3[nH]ccc3c1CCS(=O)(=O)CC(C)(C)CCCC2(C)c1cccc(CC(O)C(=O)O)c1 (single isomer, unassigned) [Compound 134A, 3-[3-(22,28-Difluoro-3,6,10,10-tetramethyl-12,12-dioxo-24-oxa-12λ6-thia-3,4,19,30-tetrazapentacyclo-[23.3.1.12,5.015,23.016,20]-triaconta-1(29),2(30),4,15,17,20,22,25,27-nonaen-6-yl)phenyl]-2-hydroxy-propanoic Acid] | C (a value greater than 10 °C and less than or equal to 25 °C is marked “C”) | C (a value between 20 and 80 is marked “C”)
13 | Cn1nc2nc1-c1cc(ccc1F)Oc1c(F)cc3[nH]ccc3c1CCS(=O)(=O)CC(C)(C)CCCC2(C)c1cccc(CC(O)C(=O)O)c1 (single isomer, unassigned) [Compound 134B, 3-[3-(22,28-Difluoro-3,6,10,10-tetramethyl-12,12-dioxo-24-oxa-12λ6-thia-3,4,19,30-tetrazapentacyclo-[23.3.1.12,5.015,23.016,20]-triaconta-1(29),2(30),4,15,17,20,22,25,27-nonaen-6-yl)phenyl]-2-hydroxy-propanoic Acid] | A (an ΔTagg value less than or equal to 5 °C is marked “A”) | A (a TECC value less than 12 is marked “A”)
14 | COC(Cc1cccc(C2(C)CCCC(C)(C)CS(=O)(=O)CCc3c(c(F)cc4[nH]ccc34)Oc3ccc(F)c(c3)-c3nc2nn3C)c1)C(=O)O (single isomer, unassigned) [Compound 135A, 3-[3-(22,28-Difluoro-3,6,10,10-tetramethyl-12,12-dioxo-24-oxa-12λ6-thia-3,4,19,30-tetrazapentacyclo-[23.3.1.12,5.015,23.016,20]triaconta-1(29),2(30),4,15,17,20,22,25,27-nonaen-6-yl)phenyl]-2-methoxy-propanoic Acid] | A (an ΔTagg value less than or equal to 5 °C is marked “A”) | A (a TECC value less than 12 is marked “A”)
15 | COC(Cc1cccc(C2(C)CCCC(C)(C)CS(=O)(=O)CCc3c(c(F)cc4[nH]ccc34)Oc3ccc(F)c(c3)-c3nc2nn3C)c1)C(=O)O (single isomer, unassigned) [Compound 135B, 3-[3-(22,28-Difluoro-3,6,10,10-tetramethyl-12,12-dioxo-24-oxa-12λ6-thia-3,4,19,30-tetrazapentacyclo-[23.3.1.12,5.015,23.016,20]triaconta-1(29),2(30),4,15,17,20,22,25,27-nonaen-6-yl)phenyl]-2-methoxy-propanoic Acid] | C (a value greater than 10 °C and less than or equal to 25 °C is marked “C”) | C (a value between 20 and 80 is marked “C”)
16 | CC(Cc1cccc(C2(CN)CCCC(C)(C)CS(=O)(=O)CCc3c(c(F)cc4[nH]ccc34)Oc3ccc(F)c(c3)-c3nc2nn3C)c1)C(=O)O (single isomer, unassigned) [Compound 136A, 3-[3-[6-(aminomethyl)-22,28-difluoro-3,10,10-trimethyl-12,12-dioxo-24-oxa-12λ6-thia-3,4,19,30-tetrazapentacyclo-[23.3.1.12,5.015,23.016,20]triaconta-1(29),2(30),4,15,17,20,22,25,27-nonaen-6-yl]phenyl]-2-methyl-propanoic Acid] | A (an ΔTagg value less than or equal to 5 °C is marked “A”) | A (a TECC value less than 12 is marked “A”)
